Reference: patent US9096548B2, “Pyrazine amide compounds” (Boehringer Ingelheim International GmbH, priority 2013, dated 2015)
pIC50: −log10 of the molar value.

target: T1, ENaC (Epithelial Sodium Channel) (Mus musculus, UniProt Q61180+Q9WU38+Q9WU39); experiment: Ussing Chamber assay (short circuit current, amiloride sensitive I_SC); assay type: cell-based; conditions: Ussing chamber, mouse kidney M-1 cells, short circuit current, compound added to the apical solution; read-out: IC50
T1 construct: Mouse kidney M−1 cells were cultivated in DMEM; endogenous in cells; host or cells: Mouse kidney M-1 cells, cultivated with dexamethasone on transwell filters
T1 sequence (Q61180 1-699): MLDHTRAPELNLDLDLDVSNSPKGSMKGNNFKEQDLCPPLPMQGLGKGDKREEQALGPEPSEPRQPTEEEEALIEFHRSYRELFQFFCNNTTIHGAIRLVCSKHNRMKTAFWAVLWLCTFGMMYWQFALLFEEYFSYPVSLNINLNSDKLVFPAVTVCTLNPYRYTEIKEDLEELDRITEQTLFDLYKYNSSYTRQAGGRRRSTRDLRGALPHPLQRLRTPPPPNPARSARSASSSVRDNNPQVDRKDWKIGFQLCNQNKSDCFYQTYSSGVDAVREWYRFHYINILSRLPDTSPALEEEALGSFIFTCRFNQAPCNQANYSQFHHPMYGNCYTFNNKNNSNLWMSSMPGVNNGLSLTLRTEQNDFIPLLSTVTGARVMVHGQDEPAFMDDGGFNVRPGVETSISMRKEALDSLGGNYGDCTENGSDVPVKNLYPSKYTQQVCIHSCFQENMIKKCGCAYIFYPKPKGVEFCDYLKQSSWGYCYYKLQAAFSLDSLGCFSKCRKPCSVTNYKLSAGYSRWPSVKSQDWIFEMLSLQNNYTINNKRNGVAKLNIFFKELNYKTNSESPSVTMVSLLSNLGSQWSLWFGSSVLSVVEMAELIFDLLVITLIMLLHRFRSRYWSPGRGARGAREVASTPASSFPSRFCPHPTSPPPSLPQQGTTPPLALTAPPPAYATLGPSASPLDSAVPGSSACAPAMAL
T1 sequence (Q9WU38 1-638): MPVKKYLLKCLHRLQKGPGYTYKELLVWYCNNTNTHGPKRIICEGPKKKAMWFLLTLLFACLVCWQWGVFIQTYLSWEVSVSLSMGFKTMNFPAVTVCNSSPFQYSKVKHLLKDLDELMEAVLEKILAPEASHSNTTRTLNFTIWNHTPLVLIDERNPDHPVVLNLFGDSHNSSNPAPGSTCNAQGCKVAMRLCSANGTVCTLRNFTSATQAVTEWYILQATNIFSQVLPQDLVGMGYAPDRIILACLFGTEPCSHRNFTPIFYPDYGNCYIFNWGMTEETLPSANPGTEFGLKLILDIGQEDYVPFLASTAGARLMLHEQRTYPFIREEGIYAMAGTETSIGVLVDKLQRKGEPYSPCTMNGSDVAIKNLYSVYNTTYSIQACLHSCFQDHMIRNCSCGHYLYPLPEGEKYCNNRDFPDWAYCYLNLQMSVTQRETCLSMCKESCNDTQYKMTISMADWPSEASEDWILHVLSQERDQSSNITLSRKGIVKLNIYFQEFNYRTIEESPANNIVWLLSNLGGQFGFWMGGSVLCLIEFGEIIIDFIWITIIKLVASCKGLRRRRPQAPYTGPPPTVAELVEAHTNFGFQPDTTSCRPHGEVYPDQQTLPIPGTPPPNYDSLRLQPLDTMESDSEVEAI
T1 sequence (Q9WU39 1-655): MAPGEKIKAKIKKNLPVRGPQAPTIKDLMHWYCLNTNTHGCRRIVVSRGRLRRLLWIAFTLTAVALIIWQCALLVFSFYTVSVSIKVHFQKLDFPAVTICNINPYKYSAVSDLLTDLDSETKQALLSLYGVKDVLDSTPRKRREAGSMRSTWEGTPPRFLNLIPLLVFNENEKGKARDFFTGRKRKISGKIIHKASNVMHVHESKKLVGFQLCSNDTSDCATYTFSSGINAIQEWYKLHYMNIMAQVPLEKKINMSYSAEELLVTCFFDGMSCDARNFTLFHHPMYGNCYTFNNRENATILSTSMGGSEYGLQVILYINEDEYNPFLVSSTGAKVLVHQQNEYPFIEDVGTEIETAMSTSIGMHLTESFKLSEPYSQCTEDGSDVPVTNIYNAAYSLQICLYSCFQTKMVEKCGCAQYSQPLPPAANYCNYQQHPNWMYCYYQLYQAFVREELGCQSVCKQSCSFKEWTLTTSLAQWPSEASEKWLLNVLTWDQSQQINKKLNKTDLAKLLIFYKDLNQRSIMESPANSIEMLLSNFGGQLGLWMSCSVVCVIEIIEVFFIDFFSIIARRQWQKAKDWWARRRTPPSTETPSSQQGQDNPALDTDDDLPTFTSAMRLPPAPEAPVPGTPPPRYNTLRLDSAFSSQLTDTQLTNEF
Method in brief: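 Mouse kidney M-1 cells grown 10–12 days on filters with 5 μM dexamethasone, measured in Caco-2 transport buffer at 37° C under voltage clamp. Compound applied apically at 3 μM or 1-3-10 μM; 3 μM amiloride added at end. Short circuit current inhibition given as percent of amiloride effect or IC50.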

SMILES | pIC50
COCCN(CCOC)C(=O)COc1ccc(CCC[N+]2(CCCc3ccc(OCC(=O)N(CCOC)CCOC)cc3)CCC[C@H](NC(=O)c3nc(Cl)c(N)nc3N)C2)cc1 [Example 6.21] | 7.64
CN1CCN(C(=O)COc2ccc(CCC[N+]3(CCCc4ccc(OCC(=O)N5CCN(C)CC5)cc4)CCC[C@H](NC(=O)c4nc(Cl)c(N)nc4N)C3)cc2)CC1 [Example 6.53] | 7.41
Nc1nc(N)c(C(=O)N[C@H]2CCC[N+](CCCc3ccc(OCC(=O)N4CCC(O)CC4)cc3)(CCCc3ccc(OCC(=O)N4CCC(O)CC4)cc3)C2)nc1Cl [Example 6.56] | 7.04
COc1ccc(CCC[N+](C)(CCCc2ccc(OC)cc2)C[C@H](C)NC(=O)c2nc(Cl)c(N)nc2N)cc1 [Example 2.2] | 6.89
Nc1nc(N)c(C(=O)N[C@H]2CCC[N+](CCCc3ccc(OCC(=O)NCc4ccncc4)cc3)(CCCc3ccc(OCC(=O)NCc4ccncc4)cc3)C2)nc1Cl [Example 6.64] | 8.40
COc1ccc(CCC[N+]2(CCCc3ccccc3)CCCC(NC(=O)c3nc(Cl)c(N)nc3N)C2)cc1 (stereo not drawn) [Example 3.5] | 8.22
COc1ccc(CCC[N+]2(CCCc3ccc(C(N)=O)cc3)CCCC(NC(=O)c3nc(Cl)c(N)nc3N)C2)cc1 (stereo not drawn) [Example 5.6] | 7.60
Nc1nc(N)c(C(=O)N[C@H]2CCC[N+](CCCc3ccc(OCC(=O)N4CCS(=O)(=O)CC4)cc3)(CCCc3ccc(OCC(=O)N4CCS(=O)(=O)CC4)cc3)C2)nc1Cl [Example 6.24] | 7.33
COc1ccc(CCC[N+]2(CCCc3ccc(C(=O)NCCCS(=O)(=O)O)cc3)CCCC(NC(=O)c3nc(Cl)c(N)nc3N)C2)cc1 (stereo not drawn) [Example 5.4] | 6.59
Nc1nc(N)c(C(=O)N[C@H]2CCC[N+](CCCc3ccc(OCC(=O)NCCN4CCCC4=O)cc3)(CCCc3ccc(OCC(=O)NCCN4CCCC4=O)cc3)C2)nc1Cl [Example 6.35] | 7.80
NC(=O)COc1ccc(CCC[N+]2(CCCc3ccc(OCC(N)=O)cc3)CCCC(NC(=O)c3nc(Cl)c(N)nc3N)C2)cc1 (stereo not drawn) [Example 6.4] | 7.14
COc1ccc(CCC[N+]2(CCCCc3ccccc3)CCCC(NC(=O)c3nc(Cl)c(N)nc3N)C2)cc1 (stereo not drawn) [Example 3.4] | 7.47
Nc1nc(N)c(C(=O)N[C@H]2CCC[N+](CCCc3ccc(OCC(=O)NC(CO)c4cccnc4)cc3)(CCCc3ccc(OCC(=O)NC(CO)c4cccnc4)cc3)C2)nc1Cl (stereo partly drawn) [Example 6.39] | 7.96
COc1ccc(CCC[N+]2(Cc3ccccc3)CCCC(NC(=O)c3nc(Cl)c(N)nc3N)C2)cc1 (stereo not drawn) [Example 3.7] | 6.85

Further lines, results first:

pIC50 | SMILES
7.51 | CN(C)CCCNC(=O)COc1ccc(CCC[N+]2(CCCc3ccc(OCC(=O)NCCCN(C)C)cc3)CCCC(NC(=O)c3nc(Cl)c(N)nc3N)C2)cc1 (stereo not drawn) [Example 6.7]
8.15 | COCCCNC(=O)COc1ccc(CCC[N+]2(CCCc3ccc(OCC(=O)NCCCOC)cc3)CCC[C@H](NC(=O)c3nc(Cl)c(N)nc3N)C2)cc1 [Example 6.60]
7.47 | N#Cc1ccc(CCC[N+]2(CCCc3ccc(C#N)cc3)CCC[C@H](NC(=O)c3nc(Cl)c(N)nc3N)C2)cc1 [Example 10.8, 1,1-Bis-[3-(4-cyano-phenyl)-propyl]-3-[(3,5-diamino-6-chloro-pyrazine-2-carbonyl)-amino]-piperidinium chloride]
7.35 | COC(=O)COc1ccc(CCC[N+]2(CCCc3ccc(OCC(=O)OC)cc3)CCC[C@H](NC(=O)c3nc(Cl)c(N)nc3N)C2)cc1 [Example 6.11]
8.22 | Nc1nc(N)c(C(=O)N[C@H]2CCC[N+](CCCc3ccc(OCC(=O)NCCc4ccccn4)cc3)(CCCc3ccc(OCC(=O)NCCc4ccccn4)cc3)C2)nc1Cl [Example 6.50]
6.68 | Nc1nc(N)c(C(=O)N[C@H]2CCC[N+](CCCc3ccc(OCC(=O)N4CC[S+]([O-])CC4)cc3)(CCCc3ccc(OCC(=O)N4CC[S+]([O-])CC4)cc3)C2)nc1Cl [Example 6.30]

same assay, conditions: Ussing chamber, mouse kidney M-1 cells, short circuit current; unit inferred; read-out: IC50

pIC50 | SMILES
6.95 | Nc1nc(N)c(C(=O)NC2CCC[N+](CCCc3ccc(OCCOCCOCCOCCOCCO)cc3)(CCCc3ccc(OCCOCCOCCOCCOCCO)cc3)C2)nc1Cl (stereo not drawn) [Example 9.1, 3-[(3,5-Diamino-6-chloro-pyrazine-2-carbonyl)-amino]-1,1-bis-(3-{4-[2-(2-{2-[2-(2-hydroxy-ethoxy)-ethoxy]-ethoxy}-ethoxy)-ethoxy]-phenyl}-propyl)-piperidinium chloride]
7.66 | COCCOc1ccc(CCC[N+]2(CCCc3ccc(OCCOC)cc3)CCCC(NC(=O)c3nc(Cl)c(N)nc3N)C2)cc1 (stereo not drawn) [Example 9.3, 3-[(3,5-Diamino-6-chloro-pyrazine-2-carbonyl)-amino]-1,1-bis-{3-[4-(2-methoxy-ethoxy)-phenyl]-propyl}-piperidinium chloride]

same assay, conditions: Ussing chamber, mouse kidney M-1 cells, short circuit current; value printed in the example text with μM; read-out: IC50

SMILES | IC50
COc1ccc(CCC[N+]2(CCCc3ccc(C(=O)[O-])cc3)CCCC(NC(=O)c3nc(Cl)c(N)nc3N)C2)cc1 (stereo not drawn) [Example 5.1, 1-[3-(4-Carboxy-phenyl)-propyl]-3-[(3,5-diamino-6-chloro-pyrazine-2-carbonyl)-amino]-1-[3-(4-methoxy-phenyl)-propyl]-piperidinium] | 0.11 µM
Nc1nc(N)c(C(=O)NC2CCC[N+](CCCc3ccc(OCC(=O)O)cc3)(CCCc3ccc(OCC(=O)O)cc3)C2)nc1Cl (stereo not drawn) [Example 6.1, 1,1-Bis-[3-(4-carboxymethoxy-phenyl)-propyl]-3-[(3,5-diamino-6-chloro-pyrazine-2-carbonyl)-amino]-piperidinium chloride] | > 1 µM
COC(=O)CNC(=O)c1ccc(CCC[N+]2(CCCc3ccc(OC)cc3)CCCC(NC(=O)c3nc(Cl)c(N)nc3N)C2)cc1 (stereo not drawn) [Example 5.2, 3-[(3,5-Diamino-6-chloro-pyrazine-2-carbonyl)-amino]-1-{3-[4-(methoxycarbonylmethylcarbamoyl)-phenyl]-propyl}-1-[3-(4-methoxy-phenyl)-propyl]-piperidinium chloride] | 0.042 µM

Now from value to compound:

IC50 | SMILES
> 1 µM | COc1ccc(CCC[N+]2(CC(=O)O)CCCC(NC(=O)c3nc(Cl)c(N)nc3N)C2)cc1 (stereo not drawn) [Example 13, 1-Carboxymethyl-3-[(3,5-diamino-6-chloro-pyrazine-2-carbonyl)-amino]-1-[3-(4-methoxy-phenyl)propyl]-piperidinium chloride]
0.76 µM | Nc1nc(N)c(C(=O)NC2CCC[N+](CCCc3ccc(C(=O)NCCOCCOCCO)cc3)(CCCc3ccc(C(=O)NCCOCCOCCO)cc3)C2)nc1Cl (stereo not drawn) [Example 4.2, 3-[(3,5-Diamino-6-chloro-pyrazine-2-carbonyl)-amino]-1,1-bis-[3-(4-{2-[2-(2-hydroxyethoxy)-ethoxy)]-ethylcarbamoyl}-phenyl)-propyl]-piperidinium chloride]
